Data reported in patent US20180318199A1, “Pharmaceutical Composition Having Anti-Aging Properties against High-Glucose” (TAIWAN LEADER BIOTECH CORP., priority 2017, published 2018).
Entries after “also recorded” stand apart in the source; their conditions may differ.

Columns and labels:
Type in all cases: cell-based, human
[1] = test system: p16^INK4A, p21^CIP1 and SMP30; assay: Western blot of senescence-associated marker proteins in HNDFs
Procedure: In addition, in FIG. 2C, HNDFs are incubated with ANA (10 μM), ANH (10 μM) and ANM (10 μM) in the presence of HG (30 mM) for 72 h. Senescence-associated marker proteins such as p16^INK4A, p21^CIP1 and SMP30 are determined by western blot analysis.
In order to assess the cellular and molecular basis of the ANM-mediated inhibition of senescence, the expression levels of senescence-associated marker proteins including, p16^INK4A and p21^CIP1 are examined. In FIG. 4D, to determine the effect of ANM on senescence-associated protein expression, HNDFs are incubated with ANM (10 μM) or NAC (100 μM) in the presence or absence of HG (30 mM) for 72 h. Immunoblotting analysis is used to determine the protein levels with corresponding specific antibodies.
(§1) Cells are lysed by either RIPA lysis buffer or nuclear and cytoplasmic extraction reagents (Thermo Fisher Scientific). Protein concentrations are determined by Bio-Rad protein assay reagent (Bio-Rad Laboratories, Hercules, Calif.). Equal amounts of protein samples (60 μg) are separated by 7-12% SDS-PAGE and the separated proteins are transferred onto polyvinylidene […] (PVDC) membrane overnight. The transferred protein membranes are blocked with 5% non-fat dried milk for 30 min, followed by incubation with specific primary antibodies overnight, and either horseradish peroxidase-conjugated goat anti-rabbit or anti-mouse antibodies for 2 h. The blots are detected using VL Chemi-Smart 3000 (Viogene Biotek, Sunnyvale, Calif.) with the enhanced chemiluminescence (ECL) western blotting reagent (Millipore, Billerica, Mass.).

p53 and FoxO1 [2] = assay: Western blot of p53 and FoxO1 acetylation/phosphorylation in HNDFs; conditions: for HG-induced p53 phosphorylation at Ser15: ANM 10 μM or NAC 100 μM + HG 30 mM; for total p53 and FoxO1 levels: HNDFs, with or without HG; for protection against HG-induced decrease in FoxO1 phosphorylation: co-treatment with HG 30 mM
Procedure: It is well known that p16^INK4A and p21^CIP1 are regulated by transcription factors p53 and FoxO1 followed by acetylation. […] In addition, p53 phosphorylation at Ser15 by their upstream kinases promotes transcriptional activation in response to DNA damage.
To further examine the phenomenon that HG-induced p53 activation is relayed by the p38 MAPK or JNK/SAPK cascade, cells are incubated with corresponding pharmacological inhibitors, SB203580, SP600125, PD98059 and LY294002 for p38MAPK, JNK/SAPK, ERK1/2 and P13K/AKT, respectively in the presence of HG.
The protein expression levels of SIRT-1, SIRT-6, p21^CIP1, SMP30, p53, FoxO and acetylation of p53 and FoxO1 are determined by western blot analysis.
as §1

Nrf2 = Nrf2 nuclear localization by immunofluorescence in HNDFs; conditions: ANM 10 μM or NAC 100 μM, 2 h
Procedure: Transcriptional activation of Nrf2 is dependent upon the rate of […] followed by disassociation from cytoplasmic Keap-1. In FIG. 5F, to determine the nuclear localization of Nrf2, HNDFs are incubated with ANM (10 μM) or NAC (100 μM) in the presence or absence or HG (30 mM) for 2 h. The protein expression and localization of Nrf2 are measured by immunofluorescence using Nrf2 specific primary antibody and fluorescein isothiocyanate-conjugated secondary antibody (green). The subcellular and nuclear localization of Nrf2 is photographed using a fluoroscence microscope. DAPI (1 μM) is used to stain the nucleus.
HNDFs at a density of 1×10^4 cells/well are cultured in an eight-well glass Nunc Lab-Tek chamber (ThermoFisher Scientific, Waltham, Mass.). Cells are treated with ANM or NAC in the presence or absence of HG for 2-72 h. After incubation, culture medium is removed and cells are fixed in 4% paraformaldehyde for 15 min, permeabilized with 0.1% Triton X-100 for 10 min, washed and blocked with 10% FBS in PBS, and then incubated overnight with the corresponding primary antibodies in 1.5% FBS. […] Next, the cells are stained with 1 μg/mL 4′,6-diamidino-2-phenylindole (DAPI, Cell Signaling Technology) for 5 min, washed with PBS, and visualized using a fluorescence microscope (Motic Electric Group) at 40× magnification.

[3] = test system: SIRT-1, SIRT-3 and SIRT-6; assay: RT-PCR/Q-PCR of SIRT genes in HNDFs; conditions: 72 h
Source text: As shown in the figures, to determine whether ANM regulates HNDF senescence through a SIRT-1-mediated pathway, expression levels of SIRT genes SIRT-1, SIRT-3 and SIRT-6 are is examined.
Total RNA is extracted and subjected to Q-PCR analysis to monitor SIRT-1, SIRT-3 and SIRT-6 expression. Relative mRNA levels are normalized by β-actin mRNA. Previous studies have shown that exposure of endothelial cells to HG rapidly decreases levels of expression of SIRT genes.
Total RNA is extracted from cultured HNDFs using Trizol Reagent (Thermo Fisher Scientific). Q-PCR analysis is performed using Applied Biosystems detection instruments and software. Forward and reverse primers (10 μM), and the working solution SYBR green, is used as a PCR master mix, under the following conditions: 96° C. for 3 minutes followed by 40 cycles at 96° C. for 1 minute, 50° C. for 30 seconds and 72° C. for 90 seconds. GAPDH is used as an internal standard to control for variability in amplification because of differences in starting mRNA concentrations. The copy number of each transcript is calculated as the relative copy number normalized by GAPDH copy number.

p53 and FoxO1 [4] = assay: Western blot of p53 and FoxO1 acetylation in HUVECs; conditions: ANM 10 μM + HG 30 mM
Procedure: Please refer to FIG. 9A˜FIG. 9H, which are views showing HG-induced senescence prevented by ANM in human umbilical vein endothelial cells (HUVECs). As shown in the figures, to further delineate the protective effects of ANM on another cell system, experiments are designed to investigate the protective effect of ANM on HUVECs incubated in media containing either NG or HG alone or with ANM for 48 h. Cell viability is measured by MTT assay. […] Cell viability is determined by MTT assay. Percentage of viable cells are normalized with control cells (NG). […] In addition, in FIG. 9B, cellular senescence is determined by SA-β-gal activity assay. […] In addition, in FIG. 9C and FIG. 9D, total cell lysate is extracted and senescence-associated marker proteins including p16^INK4A, p21^CIP1 total and acetylated p53 and FoxO1 are measured by western blot analysis.
Cells are lysed by either RIPA lysis buffer or nuclear and cytoplasmic extraction reagents (Thermo Fisher Scientific). Protein concentrations are determined by Bio-Rad protein assay reagent (Bio-Rad Laboratories, Hercules, Calif.). […] The blots are detected using VL Chemi-Smart 3000 (Viogene Biotek, Sunnyvale, Calif.) with the enhanced chemiluminescence (ECL) western blotting reagent (Millipore, Billerica, Mass.).

| Compound | SMP30 protein under HG (western blot) ([1]; 10 μM + HG 30 mM, 72 h) | HG-induced p16^INK4A and p21^CIP1 protein expression ([1]; 10 μM + HG 30 mM, 72 h, western blot) | basal level of p21^CIP1 expression ([1]; ANM alone, no HG) | HG-induced p53 and FoxO1 acetylation (p53 and FoxO1 [2]; ANM 10 μM + HG 30 mM, 72 h) | HG-induced p21^CIP1 expression and acetylation in p53 and FoxO1, control siRNA cells (p53 and FoxO1 [2]; ANM 10 μM + HG, 72 h) | p21^CIP1 expression, p53/FoxO1 deacetylation, SMP30 upregulation in SIRT-1 silenced cells (p53 and FoxO1 [2]; ANM 10 μM + HG, 72 h, siSIRT-1) | HG-induced p53 phosphorylation at Ser15 (p53 and FoxO1 [2]) | total p53 and FoxO1 levels (p53 and FoxO1 [2]) | protection against HG-induced decrease in FoxO1 phosphorylation (p53 and FoxO1 [2]) | Nrf2 expression in the nucleus (Nrf2) | SIRT-1 and SIRT-6 mRNA, HG-induced depletion ([3]; ANM 10 μM + HG, Q-PCR) | SIRT-1, SIRT-3 and SIRT-6 levels (RT-PCR) ([3]; ANM 10 μM, no HG, vs control) | HG-induced p53 and FoxO1 acetylation in HUVECs (p53 and FoxO1 [4]) |
| --- | --- | --- | --- | --- | --- | --- | --- | --- | --- | --- | --- | --- | --- |
| C=C(CCC(C)C1CCC2C3=C(C(=O)C(O)C21C)C1(C)CCC(O)C(C)C1CC3)C(C)C(=O)O (centres unmarked) [ANM, antcin M] | significantly upregulated | significantly downregulated; also recorded: significantly attenuates | significantly reduces | barely observed | significantly attenuated | fails to inhibit | significantly blocked | neither ANM nor NAC affected | fails to protect | elevated Nrf2 expression in the nucleus | rescues | significantly increased | significantly blocks |
| CC(=O)N[C@@H](CS)C(=O)O [NAC, N-acetylcysteine, reference compound] |  |  |  |  |  |  | significantly blocked | neither ANM nor NAC affected | fails to protect | elevated Nrf2 expression in the nucleus |  |  |  |
